In series [1] the test system is O2^- production in guinea pigs peritoneal macrophages. Kind of series: Inhibitory effect on O2- production in guinea pig peritoneal macrophages (chemiluminescence). It counts as cell-based, guinea pig (Hartley). Conditions: Cavia porcellus, Peritoneal macrophage, 3 experiments. Here is the method:
Superoxide (O2^-) Production in Guinea Pig Peritoneal Macrophages
Male Hartley guinea pigs weighing 400-450 g were given intraperitoneally 5 ml of liquid paraffin. Four days later, 15 ml of Hank's buffer were administered into the peritoneal cavity for harvest of peritoneal cells. Macrophages in the peritoneal cells were purified by the method of Wood, P. R. [J. Immunol. Methods, 28, 117-124 (1979)].
The purity of macrophages was more than 95%. The reaction mixture contained 75 μl of macrophages (1×10^7 cells/ml), 5 μl of luminol, 10 μl of phorbol myristate acetate and 10 μl of drugs in a total volume of 100 μl. O2^- Product was assayed by chemiluminescence. Drugs were dissolved in a 10% dimethyl sulfoxide.

Series [2] deals with LTD4-induced bronchoconstriction. In words: Effect on LTD4-induced bronchoconstriction in guinea pigs. It counts as in vivo. Here is the method:
Effect on LTD4 -Induced Brochoconstriction in Guinea Pigs
Bronchoconstriction in guinea pigs was measured by the method of Konzett-Rossler[Naunyn-Schmiedeberg's Arch. exp. Path. Pharmak., 195, 71-74(1940)]. The animals were anesthetized with urethane (1.5 g/kg, intraperitoneally) and the trachea was cannulated. The animals were artificially ventilated by means of a respirator (Harvard apparatus rodent respirator) at a rate of 70 strokes/min and a constant volume of 5-7 ml. Inflation pressure was kept constantly at 10 cm H2 O. Changes in overflow of air from a side-arm of the cannula were recorded on Rectigraph-8S via a bronchospasm transducer for 15 min. LTD4 (10 μg/kg) was given into the […] through an indwelling cannula. Each specimen suspended in a 5% gum arabic solution was also given through the same cannula 1 or 24 hrs before the LTD4 administraction.

Series [3] relates to Immunoglobulin-G1 mediated bronchoconstriction reaction. In words: Action on immunoglobulin-G1 mediated bronchoconstriction reaction in guinea pigs. The settings on record: Cavia porcellus; 20 mg/kg oral, 1 hour before antigen. It counts as in vivo, Hartley guinea pigs. Here is the method:
Action on the Immunoglobulin-G1 Mediated Bronchoconstriction Reaction in Guinea Pigs
In accordance with the method of Orange and Moore (Orange, R. P. and Moore E. G. , J. Immunol., 116, 392-397, 1976), female and male Hartley guinea pigs weighing about 350 g were sensitized by intraperitoneal application of an emulsion (1 ml) composed of egg albumin (1 mg) and Freund's complete adjuvant (produced by Wako Pure-Chemical Industries, Ltd. of Japan). 3 Weeks after the sensitization, a serum antibody level in the sensitized guinea pigs was measured by means of the 3-hours passive cutaneous anaphylaxis (PCA) reaction in guinea pigs. […] The broncoconstriction reaction resulting from the antigen-antibody reaction was measured in accordance with the Konzett-Rossler method (Konzett, H. and Rossler, R., Naunyn-Schmiedeberg'ss Arch. exp. Path. pharmak., 195, 71-74, 1940). The guinea pigs were fixed on the dorsal position under anesthesia with a urethane (1.5 g/kg given intraperitonealy). An incision was made through the trachea, which was connected to an artificial respirator (manufactured by Harvard Co.) through an endotracheal tube, with a side tube of the endotracheal tube being attached to a brochoconstricting transducer (type 7020, manufactured by Ugobasile Co.). While an air volume per ventilation was adjusted to 5 to 7 ml and an air ventilation rate was controlled at 70 times/min., with a load pressure to the lung set at 10 cm H2 O, the overflown air volume was recorded on Rectigraphy-8S (manufactured by Sanei Sokki Inc. of Japan) through a transducer. After 1 mg/kg of gallamine triethiodide was given intravenously to the animals, 1 mg/kg of antigen, egg albumin dissolved in physiological saline, was applied intravenously to induce a brochoconstriction reaction. The bronchconstriction reaction was recorded for the period of time of 15 minutes. A drug was suspended in 5% gum arabic solution, and given orally 1 hour before the application of the antigen. Percent inhibition of the immunoglobuin G1 mediated bronchoconstriction reaction in guinea pigs are shown below in Table 3.

Series [4] concerns PAF-induced bronchoconstriction. In words: Effect on PAF-induced bronchoconstriction in guinea pigs. Conditions: one hour before PAF. It counts as in vivo. Here is the method:
Platelet Activating Factor (PAF)-Induced Bronchoconstriction in Guinea Pigs
Experimental procedure in this experiment was the same as that in LTD4 -induced bronchoconstriction shown in Experimental example 7. PAF is an intraveneous dose of 1 μg/kg was used. Each specimen suspended in a 5% gum arabic solution was given orally one hour before the PAF administration.

The target in series [5] is T1, 5-Lipoxygenase (Rattus norvegicus, UniProt P12527).
T1 construct: endogenous in cells; host or cells: RBL-1 (rat basophilic leukemia cells)
T1 sequence (P12527 1-673): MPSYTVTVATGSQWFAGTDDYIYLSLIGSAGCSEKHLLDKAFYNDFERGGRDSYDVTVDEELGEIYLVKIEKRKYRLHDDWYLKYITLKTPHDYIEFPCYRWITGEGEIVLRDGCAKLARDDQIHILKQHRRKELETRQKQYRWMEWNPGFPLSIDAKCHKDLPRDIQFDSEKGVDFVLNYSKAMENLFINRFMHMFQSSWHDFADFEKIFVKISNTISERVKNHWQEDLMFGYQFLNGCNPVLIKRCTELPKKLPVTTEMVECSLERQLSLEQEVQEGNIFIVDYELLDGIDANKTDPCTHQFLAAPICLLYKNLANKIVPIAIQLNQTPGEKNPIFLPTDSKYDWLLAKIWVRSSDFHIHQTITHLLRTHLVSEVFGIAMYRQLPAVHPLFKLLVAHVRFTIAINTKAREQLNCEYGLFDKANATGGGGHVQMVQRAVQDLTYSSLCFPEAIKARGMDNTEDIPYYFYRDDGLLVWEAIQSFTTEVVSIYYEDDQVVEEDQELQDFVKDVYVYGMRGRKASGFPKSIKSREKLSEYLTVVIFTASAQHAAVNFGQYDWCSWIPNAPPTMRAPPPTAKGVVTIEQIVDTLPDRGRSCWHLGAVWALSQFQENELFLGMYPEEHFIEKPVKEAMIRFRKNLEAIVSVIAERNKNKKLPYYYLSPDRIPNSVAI
Kind of series: 5-Lipoxygenase inhibitory activity: 5-HETE production in RBL-1 cells (HPLC). It counts as cell-based, rat (RBL-1, rat basophilic leukemia cells). Conditions: arachidonic acid + A 23187, 37° C., 20 minutes, read-out: 5-HETE production inhibiting effect (IC50). Here is the method: 5-Lipoxygenase Inhibitory Activity
10^7 RBL-1 cells (rat basophilic leukemia cells) were suspended in 0.5 ml of MCM (mast cell medium), and test solutions (made up of 0.5 ml of MCM, 50 μg of arachidonic acid, 10 μg of A 23187 (calcium ionophore, Eli Lilly) and 1 μM, 0.1 μM, 0.01 μM and0.001 μM as the final concentration of the quinone compound, respectively) prepared previously were added respectively to the suspension, followed by reaction at 37° C. for 20 minutes. After the conclusion of the reaction, 4 ml of ethanol and 1,4-dimethoxy-2-methyl-3-(3-methoxypropyl)naphthalene as the internal reference drug were added to the reaction solution, and the mixture was shaken thoroughly and allowed to stand at room temperature for 10 minutes. Then, it was centrifuged (2000 r.p.m.) for 10 minutes, and the supernatant fluid was separated and concentrated to dryness under reduced pressure. 0.5 Milliliter of 60% aqueous methanol was added to the concentrate, and 100 μl of the resulting solution was taken and subjected to high-performance liquid chromatography to determine amount of 5-HETE (5-hydroxyeicosatetraenoic acid). Determination of 5-HETE was made through measurement of an absorption at 237 nm with a UV absorption monitor.
The 5-HETE production inhibitory effect (IE) was expressed by [formula] wherein a is a peak height or peak area corrected by the peak for the internal reference when the quinone compound is not contained; b is a peak height or peak area corrected by the peak for the internal reference when the quinone compound is contained.

Series [6] has as its system mice of ICR breed. It counts as in vivo. Conditions: 1000 mg/kg oral, male ICR mice, 7 days. The source says:
Acute Toxicity Test in Mice (Acute Toxicity)
1000 Milligrams per kilogram of each set specimen was applied orally to groups of 5 five-weeks old male mice of ICR breed, and a number of dead animals observed for the 7-days period was counted.

Consider 12 molecules from patent US5180742A, “Quinone derivatives, their production and use” (Takeda Chemical Industries, Ltd., priority 1984, dated 1993).

As a reminder, the inhibition is the relative decrease from the control value, in per cent. A lower inhibition goes with little suppression. One may read the inhibition in vivo as the percentage by which the read-out fell short of the control. Higher therefore signals a strong effect. For orientation: IC50 means the concentration needed to halve the response being measured.

Consider `Cc1c(C)c2c(c(C)c1O)CCC(C)(CCCC(C)CCCC(C)CCCC(C)C)O2` (racemic) [dl-α-tocophenol, reference compound], for which 100 µM produced 11 ± 6% inhibition in series [1] (10^-4 M). The same molecule came in with an inhibition at 10 µM in series [1] (10^-5 M) of 3 ± 2%.
Take `COc1ccc(C(CCCCC(=O)O)C2=C(C)C(=O)C(C)=C(C)C2=O)cc1` (stereo not shown) [Compound No. 22, 6-(3,5,6-trimethyl-1,4-benzoquinon-2-yl)-6-(4-methoxyphenyl)hexanoicacid]: the “% Inhibition of LTD4-induced bronchoconstriction” value is 39% in series [2] (0.313 mg/kg, 1 hr. before LTD4); 85% in series [2] (1.25 mg/kg, 1 hr. before LTD4); 90% in series [2] (5 mg/kg, 1 hr. before LTD4); 24% in series [2] (5 mg/kg, 24 hrs. before LTD4). In addition, testing at 20 mg/kg in series [3] gave an inhibition in vivo of 82%. Besides, the figures for the “% Inhibition of PAF-induced bronchoconstriction” value in series [4] (0.313 mg/kg oral), in series [4] (1.25 mg/kg oral) and in series [4] (5 mg/kg oral) were 43%, 92% and 91%, respectively.
In the case of `CC1=C(C)C(=O)C(C(CCCCCC(=O)O)c2ccc(F)cc2)=C(C)C1=O` (stereo not shown) [Compound No. 87], the “% Inhibition of LTD4-induced bronchoconstriction” value is listed as 80% in series [2] (0.313 mg/kg, 1 hr. before LTD4); 89% in series [2] (1.25 mg/kg, 1 hr. before LTD4); 93% in series [2] (5 mg/kg, 1 hr. before LTD4); 79% in series [2] (5 mg/kg, 24 hrs. before LTD4). Moreover, in series [5], the IC50 came out at 100 nM. The same molecule registered an inhibition in vivo at 20 mg/kg in series [3] of 81%. Also, the “% Inhibition of PAF-induced bronchoconstriction” value in series [4] (0.08 mg/kg oral) is reported as 64%; in series [4] (0.313 mg/kg oral), 48%; in series [4] (1.25 mg/kg oral), 71%. In addition, the “Acute toxicity (number of dead animals/number of animals used)” value in series [6] is listed as 0/5.
As to `CC1=C(C)C(=O)C(C(CCCCCC(=O)O)c2ccc(Cl)cc2)=C(C)C1=O` (stereo not shown) [Compound No. 90, 7-(4-chlorophenyl)-7-(3,5,6-trimethyl-1,4-benzoquinon-2-yl)heptanoic acid], in series [3], 20 mg/kg produced 61% inhibition in vivo. Besides, the “Acute toxicity (number of dead animals/number of animals used)” value in series [6] is reported as 0/5.
For `COc1ccc(C(CCCCCC(=O)O)C2=C(C)C(=O)C(C)=C(C)C2=O)cc1` (stereo not shown) [compound 23], the “% Inhibition of LTD4-induced bronchoconstriction” value was 69% in series [2] (0.313 mg/kg, 1 hr. before LTD4); 80% in series [2] (1.25 mg/kg, 1 hr. before LTD4); 68% in series [2] (5 mg/kg, 1 hr. before LTD4); 49% in series [2] (5 mg/kg, 24 hrs. before LTD4). Moreover, the IC50 in series [5] came to 10 nM. For the same molecule, 20 mg/kg produced 83% inhibition in vivo in series [3]. Also, the “% Inhibition of PAF-induced bronchoconstriction” value was 75% in series [4] (0.08 mg/kg oral), 71% in series [4] (0.313 mg/kg oral) and 73% in series [4] (1.25 mg/kg oral).
With `CC1=C(C)C(=O)C(C(CCCCCC(=O)O)c2ccc(C)s2)=C(C)C1=O` (stereo not shown) [compound 33], 20 mg/kg produced 75% inhibition in vivo in series [3]. Besides, the “Acute toxicity (number of dead animals/number of animals used)” value in series [6] was 0/5.
On to `CC1=C(C)C(=O)C(C(CCCC(=O)O)c2ccccc2)=C(C)C1=O` (stereo not shown) [compound 36], for which, in series [5], the IC50 turned out to be 320 nM. In series [3], this molecule yielded an inhibition in vivo at 20 mg/kg of 80%. Further, in series [6], the “Acute toxicity (number of dead animals/number of animals used)” value is listed as 0/5.
The molecule `COC1=C(OC)C(=O)C(C(CCCCCC(=O)O)c2ccc(F)cc2)=C(C)C1=O` (stereo not shown) [compound 88] gave an inhibition in vivo at 20 mg/kg in series [3] of 79%. Moreover, the “Acute toxicity (number of dead animals/number of animals used)” value in series [6] is on record as 0/5.
Take `CC1=C(C(CCCCCC(=O)O)c2ccc(Cl)cc2)C(=O)c2ccccc2C1=O` (stereo not shown) [compound 92]: the inhibition in vivo at 20 mg/kg in series [3] is 92%. The “Acute toxicity (number of dead animals/number of animals used)” value in series [6] is 0/5.
In the same order, the values of `COC1=C(OC)C(=O)C(C(CCCCCC(=O)O)c2ccc(C)cc2)=C(C)C1=O` (stereo not shown) [compound 94] are 81% and 0/5.
As for `CC1=C(C)C(=O)C(C(CCCCCC(=O)O)c2ccc(C(C)C)cc2)=C(C)C1=O` (stereo not shown) [compound 95], in series [3], the inhibition in vivo at 20 mg/kg was found to be 63%. The “Acute toxicity (number of dead animals/number of animals used)” value in series [6] was 0/5.
In the same order, the values of `COc1ccc(C(CCCCCC(=O)O)C2=C(C)C(=O)C(C)=C(C)C2=O)cc1OC` (stereo not shown) [compound 97] are 85% and 0/5.
